Test results as given in patent US8071355B2, “Polyhydroxyalkanoate production by coenzyme A-dependent aldehyde dehydrogenase pathways” (Metabolix, Inc., priority 2002, dated 2011).

Tested on: E. coli strain MBX1335
Conditions: for average OD-600 reached: E. coli MBX1335, 10 g/L in medium, cultures allowed to continue to grow; for inhibition of growth rate: E. coli MBX1335, minimal glucose medium, 2, 5 and 10 g/L, triplicate, FIG. 2
Protocol: MBX1335 was grown overnight in LB medium supplemented with 25 μg/mL chloramphenicol. […] The base medium in these 3-mL cultures contained, per liter: 5 g glucose; 1 mmol MgSO4; 10 mg thiamine; 25.5 mmol Na2HPO4; 33.3 mmol K2HPO4; 27.2 mmol KH2PO4; 2.78 mg FeSO4.7H2O; 1.98 mg MnCl2.4H2O; 2.81 mg CoSO4.7H2O; 0.17 mg CuCl2.2H2O; 1.67 mg CaCl2.2H2O; 0.29 mg ZnSO4.7H2O; 0.1 g casein hydrolysate; and 25 μg chloramphenicol.

1-propanol
average OD-600 reached: 3.8 | inhibition of growth rate: propionate inhibits the rate of growth substantially more than 1-propanol

CCC(=O)[O-].[Na+] [propionate, sodium propionate]
average OD-600 reached: 5.0 | inhibition of growth rate: propionate inhibits the rate of growth substantially more than 1-propanol
